# Results from patent publication US9708312B2, “Dihydropyrimidinoisoquinolinones and pharmaceutical compositions thereof for the treatment of inflammatory disorders (GPR84 antagonists)” (GALAPAGOS NV, priority 2012, dated 2017).
# Test system: human neutrophils
# Assay: Human neutrophil migration assay (embelin-induced chemotaxis)
# Format: cell-based
# Details: not given
# Protocol: 2.1. Human Neutrophil Migration Assay
# The effect of agonists or antagonists for GPR84 can therefore be assayed in a neutrophil migration test. In the neutrophil migration assay, neutrophils, freshly isolated from buffy coats from human volunteers, are treated with a compound for 30 min Subsequently, the neutrophils are transferred to the upper wells of a Corning HTS transwell 96 permeable support system, of which the lower wells are filled with a embelin solution at EC80 (concentration which gives 80% of the activity of GPR84). After 1 h of incubation, migration of the neutrophils towards embelin in the lower compartment can be quantified by measuring the ATP-content of the lower wells using the ATPlite luminescence ATP detection assay system (Perkin Elmer, Cat. No.: 436110).
# 2.1.1 Isolation of Neutrophils from Human Buffy Coat
# A human buffy coat is diluted with an equal volume of ice cold DPBS. 20 mL of the diluted buffy coat is gently mixed with 4 mL of ACD buffer (140 mM citric acid, 200 mM sodium citrate and 220 mM dextrose). Then, 12 mL of the 6% dextran/0.9% NaCl solution (15 g dextran T2000 and 2.25 g NaCl dissolved in 250 mL H2O) is added to the mixture and the samples are inverted gently up to 20 times. The total volume was transferred to a new recipient and incubated at room temperature for 1 h for complete separation of the two phases to occur. The yellowish supernatant is then transferred to a clean centrifugation tube and centrifuged for 12 min at 1300 rpm and 4° C. After centrifugation, the supernatant is discarded and the remaining cell pellet is rapidly resuspended in 12 mL of ice-cold H2O for red blood cell lysis to occur. After 20 seconds, 4 mL of ice-cold 0.6 M KCl is added. Samples are mixed carefully and centrifuged for 6 min at 1300 rpm, 4° C. The supernatant is discarded and the red blood cell lysis procedure is repeated one more time. Subsequently, the cell pellet is resuspended in 4 mL of DPBS and layered over 5 mL of Lymphoprep (Nycomed Pharma, Cat. No.: 1114545) in a 15 mL centrifuge tube. After centrifugation for 12 min at 1300 rpm, 4° C., the supernatant is removed and the cell pellet, containing the neutrophils, is resuspended in 25 mL chemotaxis buffer (RPMI 1640 medium, supplemented with 10 mM HEPES; freshly made for each experiment)
# A cell suspension of 8.9×10^6 cells per milliliter is prepared. 20 μL of compound solution in chemotaxis buffer is added to 180 μL cell suspension. The mixture is incubated at 37° C. for 30 min with intermediate resuspension of the cells after 15 min Following this, 70 μL cell suspension is transferred to the upper compartment of a Corning HTS transwell 96 permeable support system with 5.0 μm pore size polycarbonate membrane (Corning, Cat. No.: 3387). The receiver well of the transwell system is then filled with 200 μL chemotaxis buffer containing compound and chemotactic agent (embelin). After incubation at 37° C. in 5% CO2 for 1 h, the upper plate of the transwell system is removed and the cell suspension in the receiver plate is transferred to a 96-well V-bottom plate. 50 μL of DPBS is added to the receiver plate to prevent remaining cells from drying out. The V-bottom plate is centrifuged for 6 min at 1500 rpm. The supernatant is removed and the cells are resuspended in 50 μL DPBS. The cells are then transferred back to the receiver plate of the transwell system. After this, 100 μL ATPlite solution (Perkin Elmer, Cat. No: 436110) was added to the cells. The plate is incubated for 10 min in the dark, while shaking. […] of cell lysate is then transferred to a white 96-well plate and luminescence is measured. The detected luminescent signal is considered as linearely related to the number of cells having migrated from the upper well to the receiver well.
row,Compound,neutrophil chemotaxis induced by GPR84 agonists
1,"c1ccc2c(Cc3c[nH]c4ccccc34)c[nH]c2c1 [3,3′ di indolylmethane, reference compound]",induce neutrophil chemotaxis
2,"CCCCCCCCCC(=O)[O-].[Na+] [sodiumdecanoate, reference compound]",induce neutrophil chemotaxis

# Same assay, conditions: Neutrophil; neutrophils from human buffy coats; embelin at EC80
row,IC50 [nM],Compound
1,0.01 to 100,"O=c1nc(OCC2COc3ncccc3O2)cc2n1CCc1cc(COC3COC3)ccc1-2 (centres unmarked) [compound 202, 2-(2,3-dihydro-[1,4]dioxino[2,3-b]pyridin-2-ylmethoxy)-9-(oxetan-3-yloxymethyl)-6,7-dihydro-pyrimido[6,1-a]isoquinolin-4-one]"
2,0.01 to 100,"O=c1nc(OCC2COc3ncccc3O2)cc2n1CCc1cc(COCCN3CCOCC3)ccc1-2 (centres unmarked) [compound 192, 2-(2,3-dihydro-[1,4]dioxino[2,3-b]pyridin-2-ylmethoxy)-9-(2-morpholin-4-yl-ethoxymethyl)-6,7-dihydro-pyrimido[6,1-a]isoquinolin-4-one]"
3,100 to 500,"O=c1nc(OCC2COc3ncccc3O2)cc2n1CCc1cc(OCc3nnn[nH]3)ccc1-2 (centres unmarked) [compound 93, 2-(2,3-dihydro-[1,4]dioxino[2,3-b]pyridin-2-ylmethoxy)-9-(1H-tetrazol-5-ylmethoxy)-6,7-dihydro-pyrimido[6,1-a]isoquinolin-4-one]"
4,0.01 to 100,"CC1(COCc2ccc3c(c2)CCn2c-3cc(OCC3COc4ncccc4O3)nc2=O)COC1 (centres unmarked) [compound 200, 2-(2,3-dihydro-[1,4]dioxino[2,3-b]pyridin-2-ylmethoxy)-9-(3-methyl-oxetan-3-ylmethoxymethyl)-6,7-dihydro-pyrimido[6,1-a]isoquinolin-4-one]"
5,0.01 to 100,"CCCC(O)C#Cc1ccc2c(c1)CCn1c-2cc(OCC2COc3ncccc3O2)nc1=O (centres unmarked) [compound 183, 2-(2,3-dihydro-[1,4]dioxino[2,3-b]pyridin-2-ylmethoxy)-9-(3-hydroxy-hex-1-ynyl)-6,7-dihydro-pyrimido[6,1-a]isoquinolin-4-one]"
6,0.01 to 100,"O=c1nc(OCC2COc3ncccc3O2)cc2n1CCc1cc(C#CCNCc3ccccc3)ccc1-2 (centres unmarked) [compound 193, 9-(3-benzylamino-prop-1-ynyl)-2-(2,3-dihydro-[1,4]dioxino[2,3-b]pyridin-2-ylmethoxy)-6,7-dihydro-pyrimido[6,1-a]isoquinolin-4-one]"
7,0.01 to 100,"CC(C)(O)C#Cc1ccc2c(c1)CCn1c-2cc(OCC2COc3ncccc3O2)nc1=O (centres unmarked) [compound 136, 2-(2,3-dihydro-[1,4]dioxino[2,3-b]pyridin-2-ylmethoxy)-9-(3-hydroxy-3-methyl-but-1-ynyl)-6,7-dihydro-pyrimido[6,1-a]isoquinolin-4-one]"
8,0.01 to 100,O=c1nc(OC[C@H]2COc3ncccc3O2)cc2n1CCc1cc(OCc3ncco3)ccc1-2 [compound 189]
9,0.01 to 100,"O=c1nc(OCC2CCCO2)cc2n1CCc1cc(OCc3cccc([N+](=O)[O-])c3)ccc1-2 (centres unmarked) [compound 32, 9-(3-nitro-benzyloxy)-2-(tetrahydro-furan-2-ylmethoxy)-6,7-dihydro-pyrimido[6,1-a]isoquinolin-4-one]"
10,0.01 to 100,"O=c1nc(OCC2CCCO2)cc2n1CCc1cc(OCC3COc4ccccc4O3)ccc1-2 (centres unmarked) [compound 18, 9-(2,3-dihydro-benzo[1,4]dioxin-2-ylmethoxy)-2-(tetrahydro-furan-2-ylmethoxy)-6,7-dihydro-pyrimido[6,1-a]isoquinolin-4-one]"
11,0.01 to 100,"CC(O)C#Cc1ccc2c(c1)CCn1c-2cc(OCC2COc3ncccc3O2)nc1=O (centres unmarked) [compound 181, 2-(2,3-dihydro-[1,4]dioxino[2,3-b]pyridin-2-ylmethoxy)-9-(3-hydroxy-but-1-ynyl)-6,7-dihydro-pyrimido[6,1-a]isoquinolin-4-one]"
12,0.01 to 100,"O=c1nc(OCC2COc3ncccc3O2)cc2n1CCc1cc(-c3cn[nH]c3)ccc1-2 (centres unmarked) [compound 180, 2-(2,3-dihydro-[1,4]dioxino[2,3-b]pyridin-2-ylmethoxy)-9-(1H-pyrazol-4-yl)-6,7-dihydro-pyrimido[6,1-a]isoquinolin-4-one]"
13,0.01 to 100,"O=c1nc(OCC2COc3ncccc3O2)cc2n1CCc1cc(CN3CCCCC3)ccc1-2 (centres unmarked) [compound 199, 2-(2,3-dihydro-[1,4]dioxino[2,3-b]pyridin-2-ylmethoxy)-9-piperidin-1-ylmethyl-6,7-dihydro-pyrimido[6,1-a]isoquinolin-4-one]"
14,100 to 500,"O=c1nc(OCC2CCCO2)cc2n1CCc1cc(OCc3cccc(-c4cncnc4)n3)ccc1-2 (centres unmarked) [compound 57, 9-(6-pyrimidin-5-yl-pyridin-2-ylmethoxy)-2-(tetrahydro-furan-2-ylmethoxy)-6,7-dihydro-pyrimido[6,1-a]isoquinolin-4-one]"
15,0.01 to 100,"O=c1nc(OCC2COc3ncccc3O2)cc2n1CCc1cc(OCc3ccccn3)ccc1-2 (centres unmarked) [compound 91, 2-(2,3-dihydro-[1,4]dioxino[2,3-b]pyridin-2-ylmethoxy)-9-(pyridin-2-ylmethoxy)-6,7-dihydro-pyrimido[6,1-a]isoquinolin-4-one]"
16,0.01 to 100,O=c1nc(OC[C@@H]2COc3ncccc3O2)cc2n1CCc1cc(OCc3ncco3)ccc1-2 [compound 190]
17,0.01 to 100,"CC(C)C(O)C#Cc1ccc2c(c1)CCn1c-2cc(OCC2COc3ncccc3O2)nc1=O (centres unmarked) [compound 188, 2-(2,3-dihydro-[1,4]dioxino[2,3-b]pyridin-2-ylmethoxy)-9-(3-hydroxy-4-methyl-pent-1-ynyl)-6,7-dihydro-pyrimido[6,1-a]isoquinolin-4-one]"
18,0.01 to 100,"N#CCOc1ccc2c(c1)CCn1c-2cc(OCC2COc3ncccc3O2)nc1=O (centres unmarked) [compound 89, [2-(2,3-dihydro-[1,4]dioxino[2,3-b]pyridin-2-ylmethoxy)-4-oxo-6,7-dihydro-4H-pyrimido[6,1-a]isoquinolin-9-yloxy]-acetonitrile]"
19,0.01 to 100,"O=c1nc(OCC2CCCO2)cc2n1CCc1cc(OCCOc3ccccc3)ccc1-2 (centres unmarked) [compound 15, 9-(2-phenoxy-ethoxy)-2-(tetrahydro-furan-2-ylmethoxy)-6,7-dihydro-pyrimido[6,1-a]isoquinolin-4-one]"
20,0.01 to 100,"O=c1nc(OCC2COc3ccccc3O2)cc2n1CCc1cc(OCc3nnn[nH]3)ccc1-2 (centres unmarked) [compound 76, 2-(2,3-dihydro-benzo[1,4]dioxin-2-ylmethoxy)-9-(1H-tetrazol-5-ylmethoxy)-6,7-dihydro-pyrimido[6,1-a]isoquinolin-4-one]"
21,0.01 to 100,"O=c1nc(OCC2COc3ncccc3O2)cc2n1CCc1cc(OCc3ncco3)ccc1-2 (centres unmarked) [compound 86, 2-(2,3-dihydro-[1,4]dioxino[2,3-b]pyridin-2-ylmethoxy)-9-(oxazol-2-ylmethoxy)-6,7-dihydro-pyrimido[6,1-a]isoquinolin-4-one]"
22,0.01 to 100,"CCC(O)C#Cc1ccc2c(c1)CCn1c-2cc(OCC2COc3ncccc3O2)nc1=O (centres unmarked) [compound 182, 2-(2,3-dihydro-[1,4]dioxino[2,3-b]pyridin-2-ylmethoxy)-9-(3-hydroxy-pent-1-ynyl)-6,7-dihydro-pyrimido[6,1-a]isoquinolin-4-one]"

# Molecular target: T1, GPR84 (Homo sapiens, UniProt Q9NQS5)
# T1 construct: expressed in transfected cells
# T1 sequence (Q9NQS5 whole entry): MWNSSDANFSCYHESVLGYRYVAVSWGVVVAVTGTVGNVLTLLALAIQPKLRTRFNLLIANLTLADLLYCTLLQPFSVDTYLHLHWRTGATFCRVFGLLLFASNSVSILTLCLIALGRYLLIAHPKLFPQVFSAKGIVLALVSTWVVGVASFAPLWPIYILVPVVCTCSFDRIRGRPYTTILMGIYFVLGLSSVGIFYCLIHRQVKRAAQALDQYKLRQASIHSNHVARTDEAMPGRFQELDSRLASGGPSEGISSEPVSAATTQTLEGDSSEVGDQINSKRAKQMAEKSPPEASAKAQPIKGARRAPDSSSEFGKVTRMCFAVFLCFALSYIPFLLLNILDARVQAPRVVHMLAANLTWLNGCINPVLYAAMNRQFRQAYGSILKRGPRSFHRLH
# Assay: GPR84 [35S]GTPγS binding assay, HEPES buffer
# Format: biochemical
# Details: 3,3′ di indolylmethane at EC80, membranes from stable cell line over expressing GPR84
# Method in brief: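 Membranes from a stable GPR84-overexpressing cell line (20 μg/well), pre-incubated with 0.1 μM GDP for 15 min at 4° C, mixed with 0.1 nM [35S]GTPγS and WGA SpA beads in 20 mM HEPES pH 7.4, 5 mM MgCl2, 250 mM NaCl, 0.05% BSA, 75 ug/mL saponin. Incubated 90 min at room temperature; scintillation proximity read after centrifugation.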
row,IC50 [nM],Compound
1,100 to 500,O=c1nc(OC[C@@H]2COc3ncccc3O2)cc2n1CCc1cc(OCc3ncco3)ccc1-2 [compound 190]
2,100 to 500,"CC(C)(N)C#Cc1ccc2c(c1)CCn1c-2cc(OCC2COc3ncccc3O2)nc1=O (centres unmarked) [compound 178, 9-(3-amino-3-methyl-but-1-ynyl)-2-(2,3-dihydro-[1,4]dioxino[2,3-b]pyridin-2-ylmethoxy)-6,7-dihydro-pyrimido[6,1-a]isoquinolin-4-one]"
